# Measured values as given in article PMC5664438, “The novel isoxazoline ectoparasiticide lotilaner (Credelio™): a non-competitive antagonist specific to invertebrates γ-aminobutyric acid-gated chloride channels (GABACls)” (Parasites & Vectors, 2017).
# “Also recorded” adds a separate entry of the source. Where two headings read alike, the source gives them in different places.
# How the values were obtained:
# [1] = molecular target: T1, DmS-GABA (wild type GABACl, RDLac) (Drosophila melanogaster, UniProt P25123); test: Antagonist cumulative pre-application concentration-inhibition, TEVC on oocytes expressing DmS-GABA; assay type: cell-based; settings: for nH (Hill coefficient): concentration-inhibition curve
# T1 construct: expressed in transfected cells; host or cells: Xenopus laevis oocytes injected with in vitro-transcribed capped cRNA (gene synthesised at Genewiz, pT7-TS vector)
# T1 sequence (P25123 45-606 isoform P25123-1 limits assumed): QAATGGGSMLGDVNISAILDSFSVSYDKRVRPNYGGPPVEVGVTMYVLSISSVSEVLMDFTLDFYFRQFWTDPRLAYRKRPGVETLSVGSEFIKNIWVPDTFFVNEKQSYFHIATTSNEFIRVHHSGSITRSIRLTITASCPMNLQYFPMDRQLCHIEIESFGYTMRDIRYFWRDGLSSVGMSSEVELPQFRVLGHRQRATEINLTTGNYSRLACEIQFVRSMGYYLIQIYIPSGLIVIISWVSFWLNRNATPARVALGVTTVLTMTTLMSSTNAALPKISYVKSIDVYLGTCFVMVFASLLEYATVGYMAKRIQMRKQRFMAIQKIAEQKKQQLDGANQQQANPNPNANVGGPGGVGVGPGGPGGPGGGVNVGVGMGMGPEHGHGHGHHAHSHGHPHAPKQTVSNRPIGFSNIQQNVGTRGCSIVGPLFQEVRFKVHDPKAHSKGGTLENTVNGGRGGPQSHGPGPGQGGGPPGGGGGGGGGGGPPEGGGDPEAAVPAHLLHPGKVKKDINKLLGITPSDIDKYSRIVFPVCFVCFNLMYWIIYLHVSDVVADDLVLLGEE
# Text: (§1) The agonist and the drug were then washed off for 15 s and the oocyte exposed again to the same drug concentration for 15 s before increasing to the next concentration.
# In a first step, we investigated the effect of lotilaner on the very well characterized D. melanogaster GABACl.
# [2] = Biological activity of the enantiomers in vivo (data not shown)
# DmS-GABA receptor [3] = molecular target: T2, DmS-GABA receptor (Drosophila melanogaster, UniProt P25123); test: Co-application protocol (GABA plus drug, no pre-incubation), TEVC on oocytes expressing DmS-GABA; settings: GABA 1 μM + 100 nM drug
# T2 sequence (P25123 45-606 isoform P25123-1 limits assumed): T1 sequence (P25123 45-606 isoform P25123-1 limits assumed)
# Ls-GABA1 [4] = molecular target: T3, Ls-GABA1 (Lepeophtheirus salmonis, UniProt A0A2H4NNJ4); test: Antagonist cumulative pre-application concentration-inhibition, TEVC on oocytes expressing Ls-GABA1; assay type: cell-based; settings: for nH (Hill coefficient): concentration-inhibition curve
# Rm-GABA [5] = molecular target: T4, Rm-GABA (Rhipicephalus microplus, UniProt C8CGT5); test: Antagonist cumulative pre-application concentration-inhibition, TEVC on oocytes expressing Rm-GABA; assay type: cell-based; settings: for nH (Hill coefficient): Rm-GABA, concentration-inhibition curve
# [6] = test system: D. melanogaster S302 form; set-up: method as in PMID 24365472; settings: cited from earlier work
# [7] = molecular target: T1, DmS-GABA (wild type GABACl, RDLac); test: GABA concentration-activation, two-electrode voltage clamp on Xenopus oocytes expressing DmS-GABA; assay type: cell-based; settings: GABA concentration-activation curve
# Method: Capped cRNAs were synthesized (T7 mMessage mMachine kit, Ambion, Austin, TX, USA) from the linearized vectors containing the different subunits according to the manufacturer’s protocol. cRNA samples were stored at -80 °C until use. Oocytes were prepared and injected using standard procedures. Briefly, ovaries were harvested from Xenopus females that were deeply anesthetized by cooling down at 4 °C and with exposure to tricaine mesylate (3-aminobenzoic acid ethyl ester, methane sulfonate salt, 150 mg/l). […] Small pieces of ovary were isolated in a sterile Barth solution containing: NaCl (88 mM), KCl (1 mM), NaHCO3 (2.4 mM), HEPES (10 mM, pH 7.5), MgSO4·7H2O (0.82 mM), Ca(NO3)2·4H2O (0.33 mM), CaCl2·6H2O (0.41 mM), at pH 7.4, and supplemented with 20 μg/ml of kanamycin, 100 U/ml penicillin and 100 μg/ml streptomycin. Oocytes were microinjected using a Roboinject automatic injection system (Multi Channel Systems, Reutlingen, Germany) with 15–25 nl of cRNA solution (5–50 ng/μl) and then incubated at 18 °C in sterile filtered Barth solution. Recordings were made 1–6 days post-cRNA injection.
# as §1
# (1) and normalized to the fitted maximal current amplitude.
# Ls-GABA1 [8] = molecular target: T3, Ls-GABA1; test: cell-based
# Method: (§2) Capped cRNAs were synthesized (T7 mMessage mMachine kit, Ambion, Austin, TX, USA) from the linearized vectors containing the different subunits according to the manufacturer’s protocol. cRNA samples were stored at -80 °C until use. Oocytes were prepared and injected using standard procedures. Briefly, ovaries were harvested from Xenopus females that were deeply anesthetized by cooling down at 4 °C and with exposure to tricaine mesylate (3-aminobenzoic acid ethyl ester, methane sulfonate salt, 150 mg/l). The animal care of Xenopus laevis (accreditation de l’animalerie HiQScreen N° 171) and sacrifice was done according to the guidance set by the veterinary authorities of the canton of Geneva based on art.18 on the animal welfare legislation (LPA, art. 141 Ordonnance sur la protection des animaux, OPAn) with the authorization N° 27479 GE/15/16). Small pieces of ovary were isolated in a sterile Barth solution containing: NaCl (88 mM), KCl (1 mM), NaHCO3 (2.4 mM), HEPES (10 mM, pH 7.5), MgSO4·7H2O (0.82 mM), Ca(NO3)2·4H2O (0.33 mM), CaCl2·6H2O (0.41 mM), at pH 7.4, and supplemented with 20 μg/ml of kanamycin, 100 U/ml penicillin and 100 μg/ml streptomycin. Oocytes were microinjected using a Roboinject automatic injection system (Multi Channel Systems, Reutlingen, Germany) with 15–25 nl of cRNA solution (5–50 ng/μl) and then incubated at 18 °C in sterile filtered Barth solution. Recordings were made 1–6 days post-cRNA injection.
# (§3) . In experiments in which the channel was challenged several times by GABA, enough time was allowed between applications for the channel to recover from desensitization. […]; 10 μM for DmS-GABA and DmR2-GABA; 50 μM for Rm-GABA; and 500 μM for Ls-GABA1). The agonist and the drug were then washed off for 15 s and the oocyte exposed again to the same drug concentration for 15 s before increasing to the next concentration.
# (§4) . (1) and normalized to the fitted maximal current amplitude. […] . Table 1 and Additional file 3: Figure S1f). The Hill coefficients were higher than 1 for the five receptors (Table 1) indicating the presence of more than one agonist binding site per receptor. These values were obtained from peak current amplitudes. […]; Table 1 and Additional file 3: Figure S1f).
# Rm-GABA [9] = molecular target: T4, Rm-GABA; test: cell-based
# Method: as §2, §3, §4
# Cl-GABAA α1β2γ2 [10] = molecular target: T5, Cl-GABAA α1β2γ2 (Canis lupus familiaris, UniProt A0A2H4NNI8+A0A2H4NNJ3+E2RSQ0); test: GABA concentration-activation, two-electrode voltage clamp on Xenopus oocytes expressing Cl-GABAA α1β2γ2; assay type: cell-based
# Method: as §2, with “Recordings were made 1–6 days post-cRNA injection.” left out
# DmS-GABA receptor [11] = molecular target: T2, DmS-GABA receptor; test: GABA concentration-response relationships for DmS-GABA in absence and presence of lotilaner; assay type: cell-based; set-up: expressed in transfected cells; host or cells: Xenopus laevis oocytes injected with in vitro-transcribed capped cRNA (gene synthesised at Genewiz, pT7-TS vector); settings: normalized to initial 100 μM GABA application
# Text: Statistical comparisons were done using unpaired Student’s t test.
# Cl-GABAA α1β2γ2 [12] = molecular target: T5, Cl-GABAA α1β2γ2; test: Antagonist cumulative pre-application concentration-inhibition, TEVC on oocytes expressing Cl-GABAA α1β2γ2; assay type: cell-based
# M. domestica GABACls = test system: M. domestica GABACls; set-up: method as in PMID 19944072; settings: cited from earlier work
# R. microplus GABACls = test system: R. microplus GABACls; set-up: method as in PMID 24365472; settings: cited from earlier work
# T3 sequence (A0A2H4NNJ4 entry or part of it): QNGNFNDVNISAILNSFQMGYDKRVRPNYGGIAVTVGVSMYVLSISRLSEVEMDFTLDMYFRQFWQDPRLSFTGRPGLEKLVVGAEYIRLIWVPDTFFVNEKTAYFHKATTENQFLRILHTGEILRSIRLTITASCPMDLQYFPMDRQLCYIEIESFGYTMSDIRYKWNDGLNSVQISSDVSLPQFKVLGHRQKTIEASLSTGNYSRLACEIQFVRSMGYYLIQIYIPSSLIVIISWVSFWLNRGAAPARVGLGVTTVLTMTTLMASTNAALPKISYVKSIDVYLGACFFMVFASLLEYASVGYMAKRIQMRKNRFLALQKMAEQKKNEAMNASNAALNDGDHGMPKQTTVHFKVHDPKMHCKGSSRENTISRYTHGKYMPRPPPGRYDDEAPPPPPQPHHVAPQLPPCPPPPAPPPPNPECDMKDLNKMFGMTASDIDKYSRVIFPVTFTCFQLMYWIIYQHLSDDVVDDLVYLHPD
# T4 sequence (C8CGT5 entry or part of it): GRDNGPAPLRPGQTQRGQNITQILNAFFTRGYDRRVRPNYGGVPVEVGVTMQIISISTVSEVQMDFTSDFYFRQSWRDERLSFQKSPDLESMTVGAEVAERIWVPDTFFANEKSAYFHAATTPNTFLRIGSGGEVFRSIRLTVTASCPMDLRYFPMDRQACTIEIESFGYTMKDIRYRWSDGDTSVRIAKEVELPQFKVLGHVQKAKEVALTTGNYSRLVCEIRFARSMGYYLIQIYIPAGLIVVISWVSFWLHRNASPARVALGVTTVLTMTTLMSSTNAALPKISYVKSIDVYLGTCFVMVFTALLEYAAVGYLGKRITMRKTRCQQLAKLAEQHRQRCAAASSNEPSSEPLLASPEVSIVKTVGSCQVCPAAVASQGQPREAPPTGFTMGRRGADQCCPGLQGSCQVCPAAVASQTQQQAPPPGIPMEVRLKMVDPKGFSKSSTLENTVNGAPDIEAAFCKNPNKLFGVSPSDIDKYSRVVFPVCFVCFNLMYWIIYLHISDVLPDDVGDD
# T5 sequence (E2RSQ0 entry or part of it): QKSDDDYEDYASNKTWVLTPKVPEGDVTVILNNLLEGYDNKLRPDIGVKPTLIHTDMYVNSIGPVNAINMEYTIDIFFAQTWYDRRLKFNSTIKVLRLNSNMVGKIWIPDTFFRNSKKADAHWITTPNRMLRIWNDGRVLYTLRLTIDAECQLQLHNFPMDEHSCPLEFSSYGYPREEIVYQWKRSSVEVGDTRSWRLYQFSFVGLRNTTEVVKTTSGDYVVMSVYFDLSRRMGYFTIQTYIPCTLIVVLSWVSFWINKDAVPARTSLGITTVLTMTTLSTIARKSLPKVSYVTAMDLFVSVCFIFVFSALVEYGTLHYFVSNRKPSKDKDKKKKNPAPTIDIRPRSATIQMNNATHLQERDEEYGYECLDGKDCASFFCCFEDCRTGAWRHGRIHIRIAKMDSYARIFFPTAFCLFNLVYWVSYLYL
# T5 sequence (A0A2H4NNJ3 entry or part of it): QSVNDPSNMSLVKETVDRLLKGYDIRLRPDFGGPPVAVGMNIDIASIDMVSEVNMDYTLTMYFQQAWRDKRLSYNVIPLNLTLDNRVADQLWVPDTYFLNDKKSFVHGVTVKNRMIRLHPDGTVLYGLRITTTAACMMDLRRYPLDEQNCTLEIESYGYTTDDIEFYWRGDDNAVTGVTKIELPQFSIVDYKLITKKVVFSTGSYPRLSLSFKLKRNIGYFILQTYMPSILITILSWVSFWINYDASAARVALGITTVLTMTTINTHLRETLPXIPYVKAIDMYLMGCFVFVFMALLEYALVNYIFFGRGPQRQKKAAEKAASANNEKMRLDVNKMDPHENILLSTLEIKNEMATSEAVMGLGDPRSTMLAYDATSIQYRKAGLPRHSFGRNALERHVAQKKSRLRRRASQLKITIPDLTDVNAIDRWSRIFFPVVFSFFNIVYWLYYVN
# T5 sequence (A0A2H4NNI8 entry or part of it): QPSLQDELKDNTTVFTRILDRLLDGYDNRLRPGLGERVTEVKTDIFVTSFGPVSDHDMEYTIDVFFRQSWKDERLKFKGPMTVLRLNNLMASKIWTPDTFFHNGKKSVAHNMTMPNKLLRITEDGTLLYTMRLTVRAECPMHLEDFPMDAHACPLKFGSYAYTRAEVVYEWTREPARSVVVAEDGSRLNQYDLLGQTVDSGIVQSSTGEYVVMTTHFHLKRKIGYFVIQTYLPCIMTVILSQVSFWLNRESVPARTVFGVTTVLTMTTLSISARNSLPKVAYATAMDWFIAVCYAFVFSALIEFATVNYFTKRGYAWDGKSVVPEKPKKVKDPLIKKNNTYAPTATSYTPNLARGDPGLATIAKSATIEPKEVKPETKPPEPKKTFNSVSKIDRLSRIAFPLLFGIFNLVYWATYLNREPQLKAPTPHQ
smiles,measurement,setting,value
Cc1cc(C2=NO[C@](c3cc(Cl)c(Cl)c(Cl)c3)(C(F)(F)F)C2)sc1C(=O)NCC(=O)NCC(F)(F)F [AHC-2229544],nH (Hill coefficient),[1]; DmS-GABA,-0.30 ± 0.03
same,inhibition of the GABA-induced current,"[1]; DmS-GABA, up to 0.3 μM",no inhibition
same,IC50,[1]; read-out: IC50,959 ± 268 nM
same,less biological activity than the S-enantiomer,[2],100 ×
same,slight decrease in both peaks and tails currents,DmS-GABA receptor [3],< 10%
"ClC1=C(Cl)[C@]2(Cl)[C@@H]3[C@@H]4C[C@@H]([C@H]5O[C@@H]45)[C@@H]3[C@@]1(Cl)C2(Cl)Cl [Dieldrin, dieldrin, reference compound]",IC50,[1],4170 ± 920 nM
same,nH (Hill coefficient),[1]; DmS-GABA,-0.45 ± 0.05
"N#Cc1nn(-c2c(Cl)cc(C(F)(F)F)cc2Cl)c(N)c1[S+]([O-])C(F)(F)F (stereo not drawn) [Fipronil, fipronil, reference compound]",IC50,[1],27.6 ± 1.71 nM
same,nH (Hill coefficient),[1]; DmS-GABA,-0.85 ± 0.04
same,IC50,Ls-GABA1 [4],165 ± 11.8 nM
same,nH (Hill coefficient),Ls-GABA1 [4]; Ls-GABA1,-0.78 ± 0.04
same,IC50,Rm-GABA [5],25.6 ± 2.25 nM
same,nH (Hill coefficient),Rm-GABA [5],-0.56 ± 0.03
same,loss of potency,[6],18 fold
"NCCCC(=O)O [GABA, γ-aminobutyric acid]",nH (Hill coefficient),[7],1.57 ± 0.15
same,EC50,Ls-GABA1 [8],393 ± 11.1 µM
same,nH (Hill coefficient),"Ls-GABA1 [8]; Ls-GABA1, GABA concentration-activation curve",1.35 ± 0.04
same,EC50,Rm-GABA [9],50 ± 0.76 µM
same,nH (Hill coefficient),"Rm-GABA [9]; Rm-GABA, GABA concentration-activation curve",2.27 ± 0.19
same,EC50,"Cl-GABAA α1β2γ2 [10]; EC50 (μM), natural agonist GABA, ± SEM",1.8 ± 0.14 µM
same,nH (Hill coefficient),Cl-GABAA α1β2γ2 [10]; GABA concentration-activation curve,1.31 ± 0.12
same,GABA Rmax,DmS-GABA receptor [11]; GABA alone,97.706 ± 2.45%
"Cc1cc(C2=NO[C@@](c3cc(Cl)c(Cl)c(Cl)c3)(C(F)(F)F)C2)sc1C(=O)NCC(=O)NCC(F)(F)F [Lotilaner, lotilaner]",GABA current inhibition,"[1]; DmS-GABA, GABA 10 μM, lotilaner concentrations > 1 μM",almost complete GABA current inhibition
same,nH (Hill coefficient),[1]; DmS-GABA,-0.64 ± 0.03
same,IC50,[1]; read-out: IC50,23.8 ± 1.87 nM
same,IC50,Ls-GABA1 [4],52.4 ± 4.54 nM
same,fold lower IC50 value compared to fipronil,Ls-GABA1 [4]; Ls-GABA1,3 fold
same,nH (Hill coefficient),Ls-GABA1 [4]; Ls-GABA1,-0.75 ± 0.04
same,IC50,Rm-GABA [5],36.8 ± 4.39 nM
same,nH (Hill coefficient),Rm-GABA [5],-0.47 ± 0.03
same,IC50,Cl-GABAA α1β2γ2 [12],> 10 µM
same,nH (Hill coefficient),"Cl-GABAA α1β2γ2 [12]; Cl-GABAA α1β2γ2, concentration-inhibition curve",-0.09 ± 0.02
same,inhibitory effect / activity on dog GABAA receptor,"Cl-GABAA α1β2γ2 [12]; Cl-GABAA α1β2γ2, up to the highest dose tested, 10 μM",no activity; also recorded: No obvious inhibitory effect
same,potentiation of peak current at first co-application,DmS-GABA receptor [3]; on average,> 30%
same,potentiation of tail current at first co-application,DmS-GABA receptor [3]; on average,> 10%
same,GABA Rmax in presence of 0.1 μM lotilaner,DmS-GABA receptor [11]; lotilaner 0.1 μM,50.98 ± 0.47%
same,GABA Rmax in presence of 1 μM lotilaner,DmS-GABA receptor [11]; lotilaner 1 μM,13.65 ± 1.12%
Cc1cc(C2=NOC(c3cc(Cl)cc(Cl)c3)(C(F)(F)F)C2)ccc1C(=O)NCC(=O)NCC(F)(F)F (stereo not drawn) [fluralaner],higher inhibitor potency over fipronil,M. domestica GABACls,5 fold
same,higher inhibitor potency over fipronil,R. microplus GABACls,5 fold
